Structures can show the parent of a compound that is named as a salt.
Columns and labels:
[1] = Stability in solution for intravenous administration (release of 3-(1-methyl-3-indolyl)-4-(1-methyl-6-nitro-3-indolyl)-1H-pyrrole-2,5-dione); assay type: physicochemical; settings: 72 hours at room temperature in a mixture of acetonitrile and saline or dextrose water; parent pyrrole-2,5-dione detected
Experimental: “Stability” is an overall assessment of the ability of a compound of formula I to withstand degradation in a typical solution used for the administration of drugs intravenously. Specifically, it refers to the ability of any given compound of formula I to release 3-(1-methyl-3-indolyl)-4-(1-methyl-6-nitro-3-indolyl)-1H-pyrrole-2,5-dione, over a 72 hour period in a mixture of acetonitrile and saline or dextrose water. The
“stability” of a compound of formula I is “very good” if the less than 1% 3-(1-Methyl-3-indolyl)-4-(1-methyl-6-nitro-3-indolyl)-1H-pyrrole-2,5-dione is detected, “good” if less than 2.5% 3-(1-Methyl-3-indolyl)-4-(1-methyl-6-nitro-3-indolyl)-1H-pyrrole-2,5-dione is detected, and “fair” if less than 5% 3-(1-Methyl-3-indolyl)-4-(1-methyl-6-nitro-3-indolyl)-1H-pyrrole-2,5-dione is detected after 72 hours incubation at room temperature.

[2] = Plasma conversion (degradation in plasma to the active metabolite); assay type: in vitro ADME; settings: human or rodent plasma at 37° C., percent degradation
Experimental: “Plasma conversion” with respect to compounds of formula I means the degradation (enzymatic and/or non-enzymatic) of such compound in human or rodent plasma at 37° C. from 30 minutes to 6 hours to give 3-(1-methyl-3-indolyl)-4-(1-methyl-6-nitro-3-indolyl)-1H-pyrrole-2,5-dione, a pharmaceutically active metabolite of compounds of formula I, as well as pharmaceutically active metabolites thereof. This conversion is typically given as the percent degradation over a specified time frame.

Row | Compound | Stability [1] | Plasma Conversion ([2]; @ 30 min) [% @ 30 min] | further results
1 | Cn1cc(C2=C(c3cn(C)c4cc([N+](=O)[O-])ccc34)C(=O)N(COC(=O)NCCOP(=O)(O)O)C2=O)c2ccccc21 [Example 20, (2-Phosphonooxy-ethyl)-carbamic Acid 3-(1-Methyl-1H-indol-3-yl)-4-(1-methyl-6-nitro-1H-indol-3-yl)-2,5-dioxo-2,5-dihydro-pyrrol-1-ylmethyl Ester] | Good | – | –
2 | Cn1cc(C2=C(c3cn(C)c4cc([N+](=O)[O-])ccc34)C(=O)N(COC(=O)C3CCNCC3)C2=O)c2ccccc21 [Example 8a, piperidine-4-carboxylic acid 3-(1-methyl-1H-indol-3-yl)-4-(1-methyl-6-nitro-1H-indol-3-yl)-2,5-dioxo-2,5-dihydro-pyrrol-1-ylmethyl ester trifluoroacetate] | Good | 30 | –
3 | [[3-(1-Methyl-1H-indol-3-yl)-4-(1-methyl-6-nitro-1H-indol-3-yl)-2,5-dioxo-2,5-dihydro-pyrrol-1-yl]methoxycarbonyl]-4-phenyl-O-methylpolyethylene Glycol 500 [Example 15] | Good | – | Plasma Conversion ([2]; @ 2 hrs): 100% @ 2 hrs
4 | Cn1cc(C2=C(c3cn(C)c4cc([N+](=O)[O-])ccc34)C(=O)N(COC(=O)c3cccnc3)C2=O)c2ccccc21 [Example 3a, nicotinic acid 3-(1-methyl-1H-indol-3-yl)-4-(1-methyl-6-nitro-1H-indol-3-yl)-2,5-dioxo-2,5-dihydro-pyrrol-1-ylmethyl ester] | Good | 70 | –
5 | Cn1cc(C2=C(c3cn(C)c4cc([N+](=O)[O-])ccc34)C(=O)N(COC(=O)CCC(=O)O)C2=O)c2ccccc21 [Example 3f, succinic acid mono-[3-(1-methyl-1H-indol-3-yl)-4-(1-methyl-6-nitro-1H-indol-3-yl)-2,5-dioxo-2,5-dihydro-pyrrol-1-ylmethyl] ester] | Good | 20 | –
6 | Cn1cc(C2=C(c3cn(C)c4cc([N+](=O)[O-])ccc34)C(=O)N(COC(=O)c3ccc(OP(=O)(O)O)cc3)C2=O)c2ccccc21 [Example 14, 4-Phosphonooxy-benzoic Acid 3-(1-Methyl-1H-indol-3-yl)-4-(1-methyl-6-nitro-1H-indol-3-yl)-2,5-dioxo-2,5-dihydro-pyrrol-1-ylmethyl Ester Monosodium Salt] | Good | – | Plasma Conversion ([2]; @ 4 hrs): 5% @ 4 hrs
7 | Cn1cc(C2=C(c3cn(C)c4cc([N+](=O)[O-])ccc34)C(=O)N(COC(=O)Cc3cccnc3)C2=O)c2ccccc21 [Example 3d, pyridin-3-yl acetic acid 3-(1-methyl-1H-indol-3-yl)-4-(1-methyl-6-nitro-1H-indol-3-yl)-2,5-dioxo-2,5-dihydro-pyrrol-1-ylmethyl ester] | Good | 70 | –
8 | Cn1cc(C2=C(c3cn(C)c4cc([N+](=O)[O-])ccc34)C(=O)N(C(=O)NCCCCOP(=O)([O-])[O-])C2=O)c2ccccc21.[Na+].[Na+] [Example 24, Phosphoric Acid Mono-(4-{[3-(1-methyl-1H-indol-3-yl)-4-(1-methyl-6-nitro-1H-indol-3-yl)-2,5-dioxo-2,5-dihydro-pyrrole-1-carbonyl]-amino}-butyl) Ester Sodium Salt] | Good | – | Plasma Conversion ([2]; @ 6 hrs): 10% @ 6 hrs
9 | Cn1cc(C2=C(c3cn(C)c4cc([N+](=O)[O-])ccc34)C(=O)N(COC(=O)c3ccc[n+](C)c3)C2=O)c2ccccc21 [Example 12, 1-Methyl-3-[3-(1-methyl-1H-indol-3-yl)-4-(1-methyl-6-nitro-1H-indol-3-yl)-2,5-dioxo-2,5-dihydro-pyrrol-1-ylmethoxycarbonyl]-pyridinium; Trifluoroacetate] | Fair | 60 | –
10 | Cn1cc(C2=C(c3cn(C)c4cc([N+](=O)[O-])ccc34)C(=O)N(CO)C2=O)c2ccccc21 | – | – | melting point: 209 to 211 °C
11 | CCCCCCC=CCCCCCCCC(=O)OCN1C(=O)C(c2cn(C)c3ccccc23)=C(c2cn(C)c3cc([N+](=O)[O-])ccc23)C1=O [Example 3g, hexadec-9-enoic 3-(1-methyl-1H-indol-3-yl)-4-(1-methyl-6-nitro-1H-indol-3-yl)-2,5-dioxo-2,5-dihydro-pyrrol-1-ylmethyl ester] | Good | – | –
12 | CCN(CC)CCNC(=O)N1C(=O)C(c2cn(C)c3ccccc23)=C(c2cn(C)c3cc([N+](=O)[O-])ccc23)C1=O [Example 21, 3-(1-Methyl-1H-indol-3-yl)-4-(1-methyl-6-nitro-1H-indol-3-yl)-2,5-dioxo-2,5-dihydro-pyrrole-1-carboxylic Acid (2-Diethylamino-ethyl)-amide] | Fair | – | Plasma Conversion ([2]; @ 1 hr): 100% @ 1 hr
13 | Cn1cc(C2=C(c3cn(C)c4cc([N+](=O)[O-])ccc34)C(=O)N(COC(=O)COCCOCCOCCOCC(=O)O)C2=O)c2ccccc21 [Example 3h, [2-[2-(2-carboxymethoxy-ethoxy)-ethoxy]-ethoxy] acetic acid-3-(1-methyl-1H-indol-3-yl)-4-(1-methyl-6-nitro-1H-indol-3-yl)-2,5-dioxo-2,5-dihydro-pyrrol-1-ylmethyl ester] | Fair | – | –
14 | Cn1cc(C2=C(c3cn(C)c4cc([N+](=O)[O-])ccc34)C(=O)N(COC(=O)Cc3ccncc3)C2=O)c2ccccc21 [Example 3c, pyridin-4-yl acetic acid 3-(1-methyl-1H-indol-3-yl)-4-(1-methyl-6-nitro-1H-indol-3-yl)-2,5-dioxo-2,5-dihydro-pyrrol-1-ylmethyl ester] | Good | 60 | –
